In US8853392B2, “Benzamide mGluR5 positive allosteric modulators and methods of making and using same” (Vanderbilt University, priority 2007, dated 2014):

Target: T1, rat mGluR5 (Rattus norvegicus, UniProt P31424)
T1 construct: expressed in transfected cells; host or cells: human embryonic kidney (HEK) cells
Test: potentiation of mGluR5 response to glutamate, Ca2+ fluorescence (FDSS) in HEK cells transfected with rat mGluR5
Assay type: cell-based
Conditions: HEK293; maximum extent of potentiation, normalized to maximal response to glutamate; SAR tables; read-out: % Glu Max
Protocol: Human embryonic kidney (HEK) cells transfected with rat mGluR5 were plated in clear bottom assay plates for assay in a Functional Drug Screening System (FDSS). The cells were loaded with a Ca^2+-sensitive fluorescent dye (e.g., Fluo-4), and the plates were washed and placed in the FDSS instrument. After establishment of a fluorescence baseline for twelve seconds, the compounds of the present invention were added to the cells, and the response in cells was measured. Five minutes later, an mGluR5 agonist (e.g., glutamate, 3,5-dihydroxyphenylglycine, or quisqualate) was added to the cells, and the response of the cells was measured. Potentiation of the agonist response of mGluR5 by the compounds in the present invention was observed as an increase in response to non-maximal concentrations of agonist (here, glutamate) in the presence of compound compared to the response to agonist in the absence of compound.
The above described assay operated in two modes. In the first mode, a range of concentrations of the present compounds were added to cells, followed by a single fixed concentration of agonist. If a compound acted as a potentiator, an EC50 value for potentiation and a maximum extent of potentiation by the compound at this concentration of agonist was determined by non-linear curve fitting. In the second mode, several fixed concentrations of the present compounds were added to various wells on a plate, followed by a range of concentrations of agonist for each concentration of present compound; the EC50 values for the agonist at each concentration of compound were determined by non-linear curve fitting. A decrease in the EC50 value of the agonist with increasing concentrations of the present compounds (a leftward shift of the agonist concentration-response curve) is an indication of the degree of mGluR5 potentiation at a given concentration of the present compound. An increase in the EC50 value of the agonist with increasing concentrations of the present compounds (a rightward shift of the agonist concentration-response curve) is an indication of the degree of mGluR5 antagonism at a given concentration of the present compound. The second mode also indicates whether the present compounds also affect the maximum response to mGluR5 to agonists.
Human embryonic kidney (HEK) cells transfected with rat mGluR5 were plated in clear-bottomed, poly-D-lysine-coated assay plates in glutamate-glutamine-free medium growth and incubated overnight at 37° C. in 5% CO2. The following day, cells were loaded with 2 μM calcium indicator dye, fluo-4 AM, for 1 h at 37° C. Dye was removed and replaced with assay buffer containing 1× Hanks balanced salt solution (Invitrogen, Carlsbad, Calif.), 20 mM HEPES, and 2.5 mM probenecid, pH 7.4. Cell plates were then loaded into the Functional Drug Screening System 6000 (FDSS 6000, Hamamatsu, Japan). After establishment of a fluorescence baseline for twelve seconds, the compounds of the present invention were added to the cells, and the response in cells was measured. Five minutes later, an mGluR5 agonist (e.g., glutamate, 3,5-dihydroxyphenylglycine, or quisqualate) was added to the cells, and the response of the cells was measured during a 1 minute incubation with agonists. Typically, the effect of test compounds of the present invention was on an EC20 concentration of glutamate was measured. All test compounds were dissolved and diluted in 100% DMSO and then serially diluted into assay buffer for a 2.5× stock in 0.25% DMSO; stock compounds were then added to the assay for a final DMSO concentration of 0.1%. Calcium fluorescence measures were recorded as fold over basal fluorescence; raw data was then normalized to the maximal response to agonist. Potentiation of the agonist response of mGluR5 by the compounds in the present invention was observed as an increase in response to non-maximal concentrations of agonist (here, glutamate) in the presence of compound compared to the response to agonist in the absence of compound. […]

T1 sequence (P31424 21-1203): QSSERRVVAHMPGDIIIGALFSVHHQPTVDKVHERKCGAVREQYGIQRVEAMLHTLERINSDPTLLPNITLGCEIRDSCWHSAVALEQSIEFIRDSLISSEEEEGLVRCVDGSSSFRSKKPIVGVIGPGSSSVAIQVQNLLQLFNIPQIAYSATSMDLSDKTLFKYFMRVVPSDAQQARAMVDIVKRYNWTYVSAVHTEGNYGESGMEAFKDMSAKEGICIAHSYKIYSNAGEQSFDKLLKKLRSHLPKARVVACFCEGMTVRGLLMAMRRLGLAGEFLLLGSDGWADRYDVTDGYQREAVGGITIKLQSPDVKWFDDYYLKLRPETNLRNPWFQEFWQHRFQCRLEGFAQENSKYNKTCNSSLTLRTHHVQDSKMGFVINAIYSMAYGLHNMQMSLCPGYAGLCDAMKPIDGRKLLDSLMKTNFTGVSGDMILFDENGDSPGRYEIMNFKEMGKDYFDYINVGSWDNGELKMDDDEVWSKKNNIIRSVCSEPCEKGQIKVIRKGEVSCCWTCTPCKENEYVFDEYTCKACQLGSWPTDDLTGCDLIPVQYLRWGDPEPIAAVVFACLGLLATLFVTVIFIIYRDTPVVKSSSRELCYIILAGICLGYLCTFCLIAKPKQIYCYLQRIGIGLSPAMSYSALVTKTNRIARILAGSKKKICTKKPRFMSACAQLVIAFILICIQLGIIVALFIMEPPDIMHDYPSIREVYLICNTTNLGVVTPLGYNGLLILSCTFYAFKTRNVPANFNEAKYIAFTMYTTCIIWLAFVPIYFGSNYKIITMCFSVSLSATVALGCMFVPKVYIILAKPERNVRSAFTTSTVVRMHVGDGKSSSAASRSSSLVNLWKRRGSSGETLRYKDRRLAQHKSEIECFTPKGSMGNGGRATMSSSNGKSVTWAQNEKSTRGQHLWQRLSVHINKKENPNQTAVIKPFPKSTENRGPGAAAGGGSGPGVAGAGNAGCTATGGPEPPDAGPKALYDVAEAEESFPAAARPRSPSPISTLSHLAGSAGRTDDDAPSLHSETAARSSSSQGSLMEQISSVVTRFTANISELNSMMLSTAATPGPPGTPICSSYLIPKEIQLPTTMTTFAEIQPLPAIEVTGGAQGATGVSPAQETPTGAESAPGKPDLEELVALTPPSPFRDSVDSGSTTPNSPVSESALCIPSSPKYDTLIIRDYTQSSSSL

| SMILES | Emax |
| --- | --- |
| O=C(c1ccc(C#Cc2ccc(F)cc2F)cc1)N1CCC(O)CC1 [Compound 19g, (4-((2,4-difluorophenyl)ethynyl)phenyl)(4-hydroxypiperidin-1-yl)methanone] | 58% |
| O=C(c1ccc(C#Cc2cccc(C(F)(F)F)c2)cc1)N1CCC(O)CC1 [Compound 19i, (4-hydroxypiperidin-1-yl)(4-((3-(trifluoromethyl)phenyl)ethynyl)phenyl)methanone] | 68% |
| O=C(c1ccc(C#Cc2ccccn2)cc1)N1CCC(O)CC1 [Compound 19k] | 49% |
| O=C(c1ccc(C#CC2CCCCC2)cc1)N1CCC(O)CC1 [Compound 19m, (4-(cyclohexylethynyl)phenyl)(4-hydroxypiperidin-1-yl)methanone] | 77% |
| CC1(O)CCN(C(=O)c2ccc(C#Cc3ccccc3F)cc2)CC1 [Compound 20a, (4-((2-fluorophenyl)ethynyl)phenyl)(4-hydroxy-4-methylpiperidin-1-yl)methanone] | 86% |
| CC1(O)CCN(C(=O)c2ccc(C#Cc3cccc(F)c3)cc2)CC1 [Compound 20b, (4-((3-fluorophenyl)ethynyl)phenyl)(4-hydroxy-4-methylpiperidin-1-yl)methanone] | 92% |
| CC1(O)CCN(C(=O)c2ccc(C#Cc3ccc(F)cc3)cc2)CC1 [Compound 20c, (4-((4-fluorophenyl)ethynyl)phenyl)(4-hydroxy-4-methylpiperidin-1-yl)methanone] | 91% |
| CC1(O)CCN(C(=O)c2ccc(C#Cc3ccc(F)c(F)c3)cc2)CC1 [Compound 20d, (4-((3,4-difluorophenyl)ethynyl)phenyl)(4-hydroxy-4-methylpiperidin-1-yl)methanone] | 91% |
| O=C(c1ccc(C#Cc2ccccc2F)cc1)N1CCC(CO)CC1 [Compound 20e, (4-((2-fluorophenyl)ethynyl)phenyl)(4-(hydroxymethyl)piperidin-1-yl)methanone] | 88% |
| O=C(c1ccc(C#Cc2cccc(F)c2)cc1)N1CCC(CO)CC1 [Compound 20f, (4-((3-fluorophenyl)ethynyl)phenyl)(4-(hydroxymethyl)piperidin-1-yl)methanone] | 86% |
| O=C(c1ccc(C#Cc2ccc(F)cc2)cc1)N1CCC(CO)CC1 [Compound 20g, (4-((4-fluorophenyl)ethynyl)phenyl)(4-(hydroxymethyl)piperidin-1-yl)methanone] | 95% |
| O=C(c1ccc(C#Cc2ccc(F)c(F)c2)cc1)N1CCC(CO)CC1 [Compound 20h, (4-((3,4-difluorophenyl)ethynyl)phenyl)(4-(hydroxymethyl)piperidin-1-yl)methanone] | 104% |
| O=C(c1ccc(C#Cc2ccccc2F)cc1)N1CCOCC1 [Compound 20i, (4-((2-fluorophenyl)ethynyl)phenyl)(morpholino)methanone] | 105% |
| O=C(c1ccc(C#Cc2cccc(F)c2)cc1)N1CCOCC1 [Compound 20j, (4-((3-fluorophenyl)ethynyl)phenyl)(morpholino)methanone] | 112% |
| O=C(c1ccc(C#Cc2ccc(F)cc2)cc1)N1CCOCC1 [Compound 20k, (4-((4-fluorophenyl)ethynyl)phenyl)(morpholino)methanone] | 107% |
| O=C(c1ccc(C#Cc2ccc(F)c(F)c2)cc1)N1CCOCC1 [Compound 20l, (4-((3,4-difluorophenyl)ethynyl)phenyl)(morpholino)methanone] | 114% |
| O=C(c1ccc(C#Cc2ccccc2F)cc1)N1CC(O)C1 [Compound 20m, (4-((2-fluorophenyl)ethynyl)phenyl)(3-hydroxyazetidin-1-yl)methanone] | 98% |

Same assay, conditions: Table 1, EC50 for potentiating the mGluR5 receptor; unit inferred; read-out: EC50

| SMILES | EC50 |
| --- | --- |
| O=C(c1ccc(C#Cc2ccc(F)cc2F)cc1)N1CCC(O)CC1 [Compound 19g, (4-((2,4-difluorophenyl)ethynyl)phenyl)(4-hydroxypiperidin-1-yl)methanone] | 2.03 µM |
| O=C(c1ccc(C#Cc2cccc(C(F)(F)F)c2)cc1)N1CCC(O)CC1 [Compound 19i, (4-hydroxypiperidin-1-yl)(4-((3-(trifluoromethyl)phenyl)ethynyl)phenyl)methanone] | 2.21 µM |
| O=C(c1ccc(C#Cc2ccccn2)cc1)N1CCC(O)CC1 [Compound 19k] | 2.45 µM |
| O=C(c1ccc(C#CC2CCCCC2)cc1)N1CCC(O)CC1 [Compound 19m, (4-(cyclohexylethynyl)phenyl)(4-hydroxypiperidin-1-yl)methanone] | 1.87 µM |
| CC1(O)CCN(C(=O)c2ccc(C#Cc3ccccc3F)cc2)CC1 [Compound 20a, (4-((2-fluorophenyl)ethynyl)phenyl)(4-hydroxy-4-methylpiperidin-1-yl)methanone] | 0.0379 µM |
| CC1(O)CCN(C(=O)c2ccc(C#Cc3cccc(F)c3)cc2)CC1 [Compound 20b, (4-((3-fluorophenyl)ethynyl)phenyl)(4-hydroxy-4-methylpiperidin-1-yl)methanone] | 0.0206 µM |
| CC1(O)CCN(C(=O)c2ccc(C#Cc3ccc(F)cc3)cc2)CC1 [Compound 20c, (4-((4-fluorophenyl)ethynyl)phenyl)(4-hydroxy-4-methylpiperidin-1-yl)methanone] | 0.0542 µM |
| CC1(O)CCN(C(=O)c2ccc(C#Cc3ccc(F)c(F)c3)cc2)CC1 [Compound 20d, (4-((3,4-difluorophenyl)ethynyl)phenyl)(4-hydroxy-4-methylpiperidin-1-yl)methanone] | 0.156 µM |
| O=C(c1ccc(C#Cc2ccccc2F)cc1)N1CCC(CO)CC1 [Compound 20e, (4-((2-fluorophenyl)ethynyl)phenyl)(4-(hydroxymethyl)piperidin-1-yl)methanone] | 0.0236 µM |
| O=C(c1ccc(C#Cc2cccc(F)c2)cc1)N1CCC(CO)CC1 [Compound 20f, (4-((3-fluorophenyl)ethynyl)phenyl)(4-(hydroxymethyl)piperidin-1-yl)methanone] | 0.0119 µM |
| O=C(c1ccc(C#Cc2ccc(F)cc2)cc1)N1CCC(CO)CC1 [Compound 20g, (4-((4-fluorophenyl)ethynyl)phenyl)(4-(hydroxymethyl)piperidin-1-yl)methanone] | 0.0261 µM |
| O=C(c1ccc(C#Cc2ccc(F)c(F)c2)cc1)N1CCC(CO)CC1 [Compound 20h, (4-((3,4-difluorophenyl)ethynyl)phenyl)(4-(hydroxymethyl)piperidin-1-yl)methanone] | 0.0817 µM |
| O=C(c1ccc(C#Cc2ccccc2F)cc1)N1CCOCC1 [Compound 20i, (4-((2-fluorophenyl)ethynyl)phenyl)(morpholino)methanone] | 0.012 µM |
| O=C(c1ccc(C#Cc2cccc(F)c2)cc1)N1CCOCC1 [Compound 20j, (4-((3-fluorophenyl)ethynyl)phenyl)(morpholino)methanone] | 0.00532 µM |
| O=C(c1ccc(C#Cc2ccc(F)cc2)cc1)N1CCOCC1 [Compound 20k, (4-((4-fluorophenyl)ethynyl)phenyl)(morpholino)methanone] | 0.0247 µM |
| O=C(c1ccc(C#Cc2ccc(F)c(F)c2)cc1)N1CCOCC1 [Compound 20l, (4-((3,4-difluorophenyl)ethynyl)phenyl)(morpholino)methanone] | 0.0351 µM |
| O=C(c1ccc(C#Cc2ccccc2F)cc1)N1CC(O)C1 [Compound 20m, (4-((2-fluorophenyl)ethynyl)phenyl)(3-hydroxyazetidin-1-yl)methanone] | 0.187 µM |

Same assay, conditions: potentiation of glutamate response, HEK cells transfected with rat mGluR5; SAR tables; read-out: EC50

| SMILES | EC50 |
| --- | --- |
| O=C(c1ccc(C#Cc2ccc(F)cc2F)cc1)N1CCC(O)CC1 [Compound 19g, (4-((2,4-difluorophenyl)ethynyl)phenyl)(4-hydroxypiperidin-1-yl)methanone] | 1.97 µM |
| O=C(c1ccc(C#Cc2cccc(C(F)(F)F)c2)cc1)N1CCC(O)CC1 [Compound 19i, (4-hydroxypiperidin-1-yl)(4-((3-(trifluoromethyl)phenyl)ethynyl)phenyl)methanone] | 2.06 µM |
| O=C(c1ccc(C#Cc2ccccn2)cc1)N1CCC(O)CC1 [Compound 19k] | 2.21 µM |
| O=C(c1ccc(C#CC2CCCCC2)cc1)N1CCC(O)CC1 [Compound 19m, (4-(cyclohexylethynyl)phenyl)(4-hydroxypiperidin-1-yl)methanone] | 1.79 µM |
| CC1(O)CCN(C(=O)c2ccc(C#Cc3ccccc3F)cc2)CC1 [Compound 20a, (4-((2-fluorophenyl)ethynyl)phenyl)(4-hydroxy-4-methylpiperidin-1-yl)methanone] | 0.0349 µM |
| CC1(O)CCN(C(=O)c2ccc(C#Cc3cccc(F)c3)cc2)CC1 [Compound 20b, (4-((3-fluorophenyl)ethynyl)phenyl)(4-hydroxy-4-methylpiperidin-1-yl)methanone] | 0.0194 µM |
| CC1(O)CCN(C(=O)c2ccc(C#Cc3ccc(F)cc3)cc2)CC1 [Compound 20c, (4-((4-fluorophenyl)ethynyl)phenyl)(4-hydroxy-4-methylpiperidin-1-yl)methanone] | 0.0394 µM |
| CC1(O)CCN(C(=O)c2ccc(C#Cc3ccc(F)c(F)c3)cc2)CC1 [Compound 20d, (4-((3,4-difluorophenyl)ethynyl)phenyl)(4-hydroxy-4-methylpiperidin-1-yl)methanone] | 0.137 µM |
| O=C(c1ccc(C#Cc2ccccc2F)cc1)N1CCC(CO)CC1 [Compound 20e, (4-((2-fluorophenyl)ethynyl)phenyl)(4-(hydroxymethyl)piperidin-1-yl)methanone] | 0.0206 µM |
| O=C(c1ccc(C#Cc2cccc(F)c2)cc1)N1CCC(CO)CC1 [Compound 20f, (4-((3-fluorophenyl)ethynyl)phenyl)(4-(hydroxymethyl)piperidin-1-yl)methanone] | 0.0119 µM |
| O=C(c1ccc(C#Cc2ccc(F)cc2)cc1)N1CCC(CO)CC1 [Compound 20g, (4-((4-fluorophenyl)ethynyl)phenyl)(4-(hydroxymethyl)piperidin-1-yl)methanone] | 0.0247 µM |
| O=C(c1ccc(C#Cc2ccc(F)c(F)c2)cc1)N1CCC(CO)CC1 [Compound 20h, (4-((3,4-difluorophenyl)ethynyl)phenyl)(4-(hydroxymethyl)piperidin-1-yl)methanone] | 0.0763 µM |
| O=C(c1ccc(C#Cc2ccccc2F)cc1)N1CCOCC1 [Compound 20i, (4-((2-fluorophenyl)ethynyl)phenyl)(morpholino)methanone] | 0.012 µM |
| O=C(c1ccc(C#Cc2cccc(F)c2)cc1)N1CCOCC1 [Compound 20j, (4-((3-fluorophenyl)ethynyl)phenyl)(morpholino)methanone] | 0.0053 µM |
| O=C(c1ccc(C#Cc2ccc(F)cc2)cc1)N1CCOCC1 [Compound 20k, (4-((4-fluorophenyl)ethynyl)phenyl)(morpholino)methanone] | 0.0236 µM |
| O=C(c1ccc(C#Cc2ccc(F)c(F)c2)cc1)N1CCOCC1 [Compound 20l, (4-((3,4-difluorophenyl)ethynyl)phenyl)(morpholino)methanone] | 0.0335 µM |
| O=C(c1ccc(C#Cc2ccccc2F)cc1)N1CC(O)C1 [Compound 20m, (4-((2-fluorophenyl)ethynyl)phenyl)(3-hydroxyazetidin-1-yl)methanone] | 0.166 µM |
